# Data taken from US11123330B2, “Methods and compositions for inhibiting mutant EGFR signaling” (The Governing Council of the University of Toronto, priority 2017, dated 2021).
# Entries after “also recorded” stand apart in the source; their conditions may differ.
# How the values were obtained:
# [1] = test system: reporter cells expressing ALK bait; test: Viability of reporter cells expressing ALK bait; format: cell-based
# [2] = test system: reporter cells expressing FGFR4 bait; test: Viability of reporter cells expressing FGFR4 bait; format: cell-based
# Description: (§1) Cell viability assays. MaMTH stable bait cells or Ba/F3 cells were seeded into 96 well plates at 10,000 cells per well. For MaMTH stable cells, the cells were treated the next day with each inhibitor in a dose-dependent manner in addition to 0.5 ug/mL tetracyline to induce bait expression. For BaF3 cells, the cells were treated with each compound the same day as seeding. After 72 hours of drug treatment, cell viability was measured using the CellTiter-Glo assay (Promega).
# [3] = target: T1, MET (Homo sapiens, UniProt P08581); test: MaMTH-DS assay, MET bait with Shc1 prey; format: cell-based
# T1 construct: expressed in transfected cells
# T1 sequence (P08581 308-1390 limits assumed): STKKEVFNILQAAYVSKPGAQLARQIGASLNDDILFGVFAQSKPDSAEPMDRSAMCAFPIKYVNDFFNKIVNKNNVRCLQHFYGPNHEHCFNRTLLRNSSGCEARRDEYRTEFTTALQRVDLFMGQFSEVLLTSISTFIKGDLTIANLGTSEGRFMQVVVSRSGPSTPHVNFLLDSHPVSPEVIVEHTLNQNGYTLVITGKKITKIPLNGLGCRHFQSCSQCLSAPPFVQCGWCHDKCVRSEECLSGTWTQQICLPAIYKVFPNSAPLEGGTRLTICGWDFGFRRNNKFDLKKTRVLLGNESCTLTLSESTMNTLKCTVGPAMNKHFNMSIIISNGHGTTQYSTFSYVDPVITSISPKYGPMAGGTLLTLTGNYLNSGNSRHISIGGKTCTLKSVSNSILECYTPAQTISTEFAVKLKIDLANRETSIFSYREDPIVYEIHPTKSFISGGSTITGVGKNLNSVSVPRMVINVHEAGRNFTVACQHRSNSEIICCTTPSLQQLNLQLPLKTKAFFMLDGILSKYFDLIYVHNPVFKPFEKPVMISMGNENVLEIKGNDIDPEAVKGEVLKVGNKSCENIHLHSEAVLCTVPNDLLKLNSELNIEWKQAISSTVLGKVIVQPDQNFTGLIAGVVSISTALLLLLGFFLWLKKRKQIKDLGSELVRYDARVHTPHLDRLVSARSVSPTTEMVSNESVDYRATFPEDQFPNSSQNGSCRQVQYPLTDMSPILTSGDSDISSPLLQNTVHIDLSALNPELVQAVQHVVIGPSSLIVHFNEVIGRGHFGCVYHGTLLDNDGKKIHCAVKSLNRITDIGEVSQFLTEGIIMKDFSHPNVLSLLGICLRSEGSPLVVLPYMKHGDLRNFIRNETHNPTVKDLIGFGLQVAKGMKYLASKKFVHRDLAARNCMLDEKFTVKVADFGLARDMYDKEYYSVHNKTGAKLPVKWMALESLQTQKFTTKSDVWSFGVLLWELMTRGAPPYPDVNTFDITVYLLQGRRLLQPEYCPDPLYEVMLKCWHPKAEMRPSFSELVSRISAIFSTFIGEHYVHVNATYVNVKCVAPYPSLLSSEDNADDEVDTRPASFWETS
# T1 sequence (P08581 25-307 partner limits assumed): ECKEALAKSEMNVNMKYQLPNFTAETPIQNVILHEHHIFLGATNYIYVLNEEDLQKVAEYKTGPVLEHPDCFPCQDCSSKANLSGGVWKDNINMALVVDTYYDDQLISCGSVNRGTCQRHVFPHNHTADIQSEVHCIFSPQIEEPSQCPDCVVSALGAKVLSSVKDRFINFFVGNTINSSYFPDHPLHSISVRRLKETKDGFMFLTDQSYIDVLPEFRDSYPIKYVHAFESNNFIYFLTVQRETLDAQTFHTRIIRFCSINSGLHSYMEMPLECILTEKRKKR
# [4] = target: T2, AXL (Homo sapiens, UniProt P30530); test: MaMTH-DS assay, AXL bait with Shc1 prey; format: cell-based
# T2 construct: expressed in transfected cells
# T2 sequence (P30530 26-894): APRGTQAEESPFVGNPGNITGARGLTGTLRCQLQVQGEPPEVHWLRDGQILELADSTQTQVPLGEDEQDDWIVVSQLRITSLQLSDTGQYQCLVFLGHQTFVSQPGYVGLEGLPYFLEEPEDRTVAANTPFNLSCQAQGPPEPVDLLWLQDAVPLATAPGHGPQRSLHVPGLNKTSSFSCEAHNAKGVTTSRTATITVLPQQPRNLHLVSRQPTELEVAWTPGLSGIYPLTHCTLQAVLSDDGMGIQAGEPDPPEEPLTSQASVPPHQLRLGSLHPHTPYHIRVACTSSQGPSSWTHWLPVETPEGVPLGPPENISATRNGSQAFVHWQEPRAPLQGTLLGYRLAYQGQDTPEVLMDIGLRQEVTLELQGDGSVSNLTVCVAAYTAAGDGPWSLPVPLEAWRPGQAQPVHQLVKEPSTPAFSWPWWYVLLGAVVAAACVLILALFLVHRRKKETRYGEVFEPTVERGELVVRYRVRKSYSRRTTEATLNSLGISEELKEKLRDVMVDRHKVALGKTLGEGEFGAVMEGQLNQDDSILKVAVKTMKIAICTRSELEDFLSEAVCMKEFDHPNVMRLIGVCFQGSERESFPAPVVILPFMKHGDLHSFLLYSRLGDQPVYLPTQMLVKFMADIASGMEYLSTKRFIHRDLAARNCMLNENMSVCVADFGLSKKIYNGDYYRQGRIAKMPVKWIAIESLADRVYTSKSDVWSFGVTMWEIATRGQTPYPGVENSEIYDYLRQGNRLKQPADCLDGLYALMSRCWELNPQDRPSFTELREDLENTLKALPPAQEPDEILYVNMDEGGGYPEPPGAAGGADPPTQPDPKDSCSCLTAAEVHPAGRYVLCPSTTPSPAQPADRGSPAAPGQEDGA
# Text: To test MaMTH-DS sensitivity and its potential suitability for use in RTK drug screening, we selected several RTKs whose dysfunction is associated with cancer, and prepared stable MaMTH-DS ‘baits’ in our reporter cell lines. We then performed MaMTH-DS assays in the presence of transfected Shcl functional adapter protein ‘prey’ and small-molecule TKIs, including both control molecules and compounds known to specifically target the function of the corresponding RTKs. First, we examined the response of the RTK MET to the TKIs Crizotinib and Erlotinib using MaMTH-DS.
# MaMTH assays. Cells stably expressing bait of interest (EGFR, MET, FGFR4, ALK, AXL) were seeded into 96-well TC-treated plates and grown at 37° C./5% CO2 overnight in DMEM/10% FBS/1% PS to ˜50-60% confluency. Cells were transfected with 50 ng/well of Nub-Shc1 ‘prey’ protein by calcium phosphate precipitation. Five hours after transfection, media was aspirated out and cells were treated with 100 uL of fresh media containing specific compound and 0.5 ug/ml of tetracyline to induce bait expression. After 24 hours, luciferase activity was measured by chemoluminescence.
# [5] = target: T3, FGFR4 (Homo sapiens, UniProt P22455); test: MaMTH-DS assay, FGFR4 bait with Shc1 prey; format: cell-based
# T3 construct: expressed in transfected cells
# T3 sequence (P22455 22-802): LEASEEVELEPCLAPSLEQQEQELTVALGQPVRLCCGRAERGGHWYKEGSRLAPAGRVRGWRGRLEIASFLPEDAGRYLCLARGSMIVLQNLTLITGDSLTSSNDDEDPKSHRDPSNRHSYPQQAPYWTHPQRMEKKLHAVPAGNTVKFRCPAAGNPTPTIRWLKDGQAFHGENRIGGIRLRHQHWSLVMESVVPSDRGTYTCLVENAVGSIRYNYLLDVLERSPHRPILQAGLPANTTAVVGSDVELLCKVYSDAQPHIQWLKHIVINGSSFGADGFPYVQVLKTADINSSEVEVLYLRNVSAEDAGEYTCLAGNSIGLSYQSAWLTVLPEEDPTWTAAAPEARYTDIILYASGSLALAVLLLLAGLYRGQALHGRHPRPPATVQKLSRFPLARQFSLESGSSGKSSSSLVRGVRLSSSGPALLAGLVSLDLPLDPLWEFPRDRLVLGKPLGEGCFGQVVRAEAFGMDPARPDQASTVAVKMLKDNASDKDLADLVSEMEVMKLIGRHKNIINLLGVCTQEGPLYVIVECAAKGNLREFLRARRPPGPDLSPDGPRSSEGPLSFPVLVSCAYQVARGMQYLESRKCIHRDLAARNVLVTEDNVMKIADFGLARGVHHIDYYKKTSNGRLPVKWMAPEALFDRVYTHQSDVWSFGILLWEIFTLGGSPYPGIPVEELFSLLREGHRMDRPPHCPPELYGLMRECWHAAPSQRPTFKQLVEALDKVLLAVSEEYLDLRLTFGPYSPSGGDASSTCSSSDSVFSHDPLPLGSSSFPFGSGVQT
# [6] = target: EGFR ex19del/T790M/C797S (Homo sapiens, UniProt P00533, C797S/DEL746-750/T790M); test: In vitro kinase assay, EGFR ex19del/T790M/C797S kinase domain; format: biochemical
# [7] = test system: PC9 EGFR ex19del/T790M/C797S cells; test: Cell viability, PC9 EGFR ex19del/T790M/C797S cells; format: cell-based; conditions: for cell viability in combination with compound 5213777: with 50 nM of compound 5213777, 72 hours, compared to alone; for cell viability in combination with Panitumumab: with 10 ug/ml Panitumumab, 72 hours
# [8] = test system: EGFR and downstream signaling molecules in PC9 EGFR-ex19del-T790M-C797S cells; test: EGFR activation and downstream signaling in PC9 EGFR-ex19del-T790M-C797S cells; format: cell-based
# [9] = test system: EGFR ex19del-T790M; test: In vitro kinase assay, EGFR ex19del-T790M; format: biochemical
# [10] = target: T4, EGFR L858R/T790M (Homo sapiens, UniProt P00533, L858R/T790M); test: MaMTH assay, EGFR L858R/T790M bait with Shc1 prey; format: cell-based
# T4 construct: change the phosphorylation status of full-length EGFR proteins in the context of living cells; expressed in transfected cells
# [11] = target: T5, EGFR-WT (Homo sapiens, UniProt P00533); test: MaMTH assay, EGFR-WT bait with Shc1 prey; format: cell-based; conditions: for interaction / complex formation with Shc1 (MaMTH, words): EGFR WT bait; for WT > 50% Inhibition / Average Percent: EGFR-WT bait, Shc1 prey; for Average Percent: retest in triplicate, MaMTH signal remaining (low = inhibition)
# T5 construct: change the phosphorylation status of full-length EGFR proteins in the context of living cells; expressed in transfected cells
# [12] = test system: PC9 EGFR ex19del/T790M/C797S organoids; test: Organoid viability, PC9 EGFR ex19del/T790M/C797S organoids; format: cell-based; conditions: 72 hours with compound
# [13] = target: T6, EGFR-L858R-T790M-C797S (Homo sapiens, UniProt P00533, C797S/L858R/T790M); test: MaMTH / MaMTH-DS assay, EGFR-L858R-T790M-C797S bait with Shc1 prey; format: cell-based; conditions: retest in triplicate, MaMTH signal remaining (low = inhibition)
# T6 construct: change the phosphorylation status of full-length EGFR proteins in the context of living cells; expressed in transfected cells
# [14] = test system: Ba/F3 cells expressing EGFR-ex19del-T790M-C797S; test: Ba/F3 cell viability (CellTiter-Glo), EGFR-ex19del-T790M-C797S; format: cell-based; conditions: for cell viability in combination with anti-EGFR antibody: with 68 nM Cetuximab or 140 nM Panitumumab
# [15] = test system: Ba/F3 cells expressing EGFR-L858R-T790M-C797S; test: Ba/F3 cell viability (CellTiter-Glo), EGFR-L858R-T790M-C797S; format: cell-based; conditions: for cell viability in combination with anti-EGFR antibody: with 68 nM Cetuximab or 140 nM Panitumumab
# [16] = test system: PC9 EGFR ex19del/T790M/C797S cells; test: Caspase 3 and 7 activity, PC9 EGFR ex19del/T790M/C797S cells; format: cell-based
# [17] = test system: reporter cells expressing AXL bait; test: Viability of reporter cells expressing AXL bait; format: cell-based
# Description: as §1
# [18] = test system: EGFR double mutants; test: In vitro kinase assay, EGFR double mutants; format: biochemical
# [19] = test system: EGFR and downstream signalling molecules in Ba/F3 EGFR-L858R-T790M-C797S cells; test: Western analysis of EGFR and downstream signalling, Ba/F3 EGFR-L858R-T790M-C797S; format: cell-based
# [20] = test system: CFBE cells; test: Caspase 3 and 7 activity, CFBE cells; format: cell-based
# [21] = test system: EGFR and downstream signalling molecules in Ba/F3 EGFR-ex19del-T790M-C797S cells; test: Western analysis of EGFR and downstream signalling, Ba/F3 EGFR-ex19del-T790M-C797S; format: cell-based
# [22] = target: T7, wild-type EGFR (Homo sapiens, UniProt P00533); test: In vitro kinase assay, EGFR WT kinase domain; format: biochemical; conditions: up to 10 micromolar
# T7 construct: recombinant proteins of the kinase domain of wild-type EGFR; purchased Reaction Biology Corporation
# [23] = target: T8, ALK (Homo sapiens, UniProt Q9UM73); test: MaMTH-DS assay, ALK bait with Shc1 prey; format: cell-based
# T8 construct: expressed in transfected cells
# T8 sequence (Q9UM73 19-1620): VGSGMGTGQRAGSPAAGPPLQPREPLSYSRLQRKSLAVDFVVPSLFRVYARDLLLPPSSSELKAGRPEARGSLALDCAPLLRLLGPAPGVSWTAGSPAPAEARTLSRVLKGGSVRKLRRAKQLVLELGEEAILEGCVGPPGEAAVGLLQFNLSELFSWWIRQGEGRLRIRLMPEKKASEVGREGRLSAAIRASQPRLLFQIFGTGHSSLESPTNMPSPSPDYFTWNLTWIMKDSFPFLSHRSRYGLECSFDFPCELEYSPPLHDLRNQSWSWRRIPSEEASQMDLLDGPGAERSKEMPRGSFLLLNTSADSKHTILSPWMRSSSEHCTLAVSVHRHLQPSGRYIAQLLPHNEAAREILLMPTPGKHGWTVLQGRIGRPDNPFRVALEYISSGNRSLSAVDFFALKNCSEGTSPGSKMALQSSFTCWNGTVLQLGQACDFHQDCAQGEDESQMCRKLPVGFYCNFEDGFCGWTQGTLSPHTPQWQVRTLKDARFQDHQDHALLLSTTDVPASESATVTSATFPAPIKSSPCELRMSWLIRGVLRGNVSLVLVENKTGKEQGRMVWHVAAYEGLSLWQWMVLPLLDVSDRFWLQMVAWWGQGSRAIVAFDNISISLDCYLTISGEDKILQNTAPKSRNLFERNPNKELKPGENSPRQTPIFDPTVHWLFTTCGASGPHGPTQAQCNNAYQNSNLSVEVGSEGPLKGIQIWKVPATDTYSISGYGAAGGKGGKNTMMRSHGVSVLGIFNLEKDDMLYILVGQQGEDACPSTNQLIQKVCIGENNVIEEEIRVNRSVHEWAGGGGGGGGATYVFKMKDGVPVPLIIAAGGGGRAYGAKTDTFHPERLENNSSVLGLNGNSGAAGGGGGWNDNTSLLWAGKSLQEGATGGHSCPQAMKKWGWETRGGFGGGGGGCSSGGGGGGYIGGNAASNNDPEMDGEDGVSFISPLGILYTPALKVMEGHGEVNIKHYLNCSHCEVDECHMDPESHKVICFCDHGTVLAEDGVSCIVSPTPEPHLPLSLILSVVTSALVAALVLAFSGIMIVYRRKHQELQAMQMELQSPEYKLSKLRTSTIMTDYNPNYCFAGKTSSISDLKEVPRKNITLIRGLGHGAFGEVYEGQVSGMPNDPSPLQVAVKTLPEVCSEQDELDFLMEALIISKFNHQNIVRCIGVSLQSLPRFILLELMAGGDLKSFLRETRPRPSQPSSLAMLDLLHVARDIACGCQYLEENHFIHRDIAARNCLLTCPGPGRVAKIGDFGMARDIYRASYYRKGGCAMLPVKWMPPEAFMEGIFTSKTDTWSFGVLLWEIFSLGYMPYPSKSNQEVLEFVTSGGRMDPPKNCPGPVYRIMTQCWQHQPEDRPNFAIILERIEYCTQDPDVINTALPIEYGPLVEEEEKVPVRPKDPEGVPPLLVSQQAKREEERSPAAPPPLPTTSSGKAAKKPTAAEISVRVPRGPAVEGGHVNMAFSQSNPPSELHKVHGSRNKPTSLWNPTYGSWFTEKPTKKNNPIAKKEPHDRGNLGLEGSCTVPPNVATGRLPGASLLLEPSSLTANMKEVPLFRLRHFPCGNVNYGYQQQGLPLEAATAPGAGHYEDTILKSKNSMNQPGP
# [24] = test system: reporter cells expressing MET bait; test: Viability of reporter cells expressing MET bait; format: cell-based
smiles,measurement,setting,value
COc1cc(N2CCC(N3CCN(C)CC3)CC2)ccc1Nc1ncc(Cl)c(Nc2ccccc2P(C)(C)=O)n1 [Brigatinib],reporter cell viability,[1],unaffected
C=CC(=O)Nc1cccc(C)c1Nc1ncc2cc(-c3c(Cl)c(OC)cc(OC)c3Cl)ccc2n1 [BLU9931],reporter cell viability,[2],no effect
C#Cc1cccc(Nc2ncnc3cc(OCCOC)c(OCCOC)cc23)c1 [Erlotinib],MaMTH-DS interaction with Shc1,[3],not
same,MaMTH-DS reporter activity,[4],not
same,MaMTH-DS reporter activity,[5],not
"CCc1nc(C(N)=O)c(Nc2ccc(N3CCC(N4CCN(C)CC4)CC3)c(OC)c2)nc1NC1CCOCC1 [Gilteritinib, 6-ethyl-3-[3-methoxy-4-[4-(4-methylpiperazin-1-yl)piperidin-1-yl]anilino]-5-(oxan-4-ylamino)pyrazine-2-carboxamide]",effect on kinase activity,[6],most robust inhibition
same,cell viability in combination with compound 5213777,[7],increased effect
same,cell viability in combination with Panitumumab,[7],significantly enhanced
same,phosphorylation and/or expression of EGFR and downstream signaling molecules,[8],inhibits EGFR activation and downstream signaling
same,effect on kinase activity,[9],preferentially inhibits
same,"interaction / complex formation with Shc1 (MaMTH, words)",[10],inhibited complex formation
same,"interaction / complex formation with Shc1 (MaMTH, words)",[11],not
same,viability of PC9 organoids,[12],dose-dependent reduction
C/C(=C\c1ccc(Cl)cc1)[N+](=O)[O-] [Compound 5238658],Average Percent,[13],0.2%
same,WT > 50% Inhibition,[11],YES
same,Average Percent,[11],0.9%
C=CC(=O)Nc1cc(Nc2nccc(-c3cn(C)c4ccccc34)n2)c(OC)cc1N(C)CCN(C)C [Osimertinib],cell viability in combination with anti-EGFR antibody,[14],does not cause enhanced reduction
same,cell viability in combination with anti-EGFR antibody,[14]; listed as AZD9291,no such enhancement was evident
same,cell viability in combination with anti-EGFR antibody,[15],does not cause enhanced reduction
same,cell viability in combination with anti-EGFR antibody,[15]; listed as AZD9291,no such enhancement was evident
same,caspase 3 and 7 activity,[16],not observed
same,viability of PC9 organoids,[12],not observed
CC1CC(Nc2ccccc2)c2ccccc2N1C(=O)c1cccs1 (stereo not drawn) [Compound 5304079],Average Percent,[13],11.7%
same,WT > 50% Inhibition,[11],YES
same,Average Percent,[11],21.5%
O=c1c(Cl)c(Cl)cnn1Cc1ccccc1 [Compound 5357830],Average Percent,[13],0.9%
same,WT > 50% Inhibition,[11],YES
same,Average Percent,[11],6.2%
COc1cc2c(Oc3ccc(NC(=O)C4(C(=O)Nc5ccc(F)cc5)CC4)cc3F)ccnc2cc1OCCCN1CCOCC1 [Foretinib],reporter cell viability,[17],unaffected
same,MaMTH-DS reporter activity,[4],"strongly reduced, in a dose-dependent manner"
"CO[C@@H]1[C@H](N(C)C(=O)c2ccccc2)C[C@H]2O[C@]1(C)n1c3ccccc3c3c4c(c5c6ccccc6n2c5c31)C(=O)NC4 [Midostaurin, N-[(9S,10R,11R,13R)-2,3,10,11,12,13-hexahydro-10-methoxy-9-methyl-1-oxo-9,13-epoxy-1H,9H-diindolo[1,2,3-gh:3′,2′,1′-lm]pyrrolo[3,4-j][1,7]benzodiazonin-11-yl]-N-methylbenzamide]",cell viability,"[14]; compound alone, 72 hours","robust, dose-dependent reduction"
same,cell viability in combination with anti-EGFR antibody,[14],Enhanced effect
same,effect on kinase activity,[18],inhibits the kinase activity
same,effect on kinase activity,[6],strongly inhibited
same,phosphorylation and/or expression of EGFR and downstream signalling molecules,[19],strongest response
same,cell viability in combination with compound 5213777,[7],increased effect
same,cell viability in combination with Panitumumab,[7],Enhanced effects
same,cell viability,"[15]; compound alone, 72 hours","robust, dose-dependent reduction"
same,cell viability in combination with anti-EGFR antibody,[15],Enhanced effect
same,caspase 3 and 7 activity,[20],not observed
same,Average Percent,[13],10.5%
same,caspase 3 and 7 activity,[16],dose-dependent activation
same,phosphorylation and/or expression of EGFR and downstream signaling molecules,[8],inhibitory effect
same,phosphorylation and/or expression of EGFR and downstream signalling molecules,[21],strongest response
same,Average Percent,[11],129.3%
same,viability of PC9 organoids,[12],dose-dependent reduction
same,effect on kinase activity,[22],no significant effect
"CCN(CC)c1ccc2cc(-c3nc4ccccc4o3)c(=O)oc2c1 [Compound 5213777, 3-(1,3-benzoxazol-2-yl)-7-(diethylamino)-2H-chromen-2-one]",effect on kinase activity,[6],no kinase inhibitory activity; also recorded: does not inhibit the kinase activity
same,MaMTH-DS interaction with Shc1,[3],not
same,MaMTH-DS reporter activity,[4],not
same,Average Percent,[13],27.8%
same,MaMTH-DS reporter activity,[23],not
same,"interaction / complex formation with Shc1 (MaMTH, words)",[11],not
same,Average Percent,[11],105.3%
same,effect on kinase activity,[22],no kinase inhibitory activity
same,MaMTH-DS reporter activity,[5],not
C[C@@H](Oc1cc(-c2cnn(C3CCNCC3)c2)cnc1N)c1c(Cl)ccc(F)c1Cl [Crizotinib],reporter cell viability,[24],not due to a loss in cell viability
